From US20250161299A1, “ORAL PCLX-001 IN THE TREATMENT OF HUMAN CANCER” (PACYLEX PHARMACEUTICALS INC., priority 2022, published 2025)
“Also recorded” adds a separate entry of the source. Read-outs that look alike come from different tables or passages of the source.

Tests used:
[1] = Phase I trial plasma pharmacokinetics, two-compartment model (PK Solver 2.0); type: in vivo; conditions: human, oral, 20 mg
Experimental: A different pharmacokinetic modeling program was used in the publication PK Solver 2.0 freeware (https://www.boomer.org/boomer/software/pksolver.zip; accessed 26 Nov. 2021) was used to determine the single dose pharmacokinetic parameters using a two-compartment model. […] As noted above, non-compartmental pharmacokinetic analysis was performed using Phoenix WinNonlin 8.3 using trapezoidal rule and linear up log down methodology. WinNonlin was allowed to pick optimal terminal phases.
Pharmacokinetic analysis was conducted as described above. […] These parameters are all supportive of a single daily oral dosing schedule for PCLX-001.

implanted human tumors = assay: Anticancer efficacy in mice bearing implanted human tumors; type: in vivo, mouse; conditions: in any given experiment
human NMT2 = human NMT2 (Homo sapiens, UniProt O60551); assay: Inhibition of N-myristoyltransferase NMT2; type: biochemical
hERG = hERG (Homo sapiens, UniProt Q12809); assay: Preclinical hERG interaction testing
[2] = system: Bladder cultured human cancer cells; conditions: mean among sensitive cell lines (EC50<500 nM or IC50<500 nM), cited from earlier work
[3] = system: Brain cultured human cancer cells; conditions: second panel, mean among sensitive cell lines, read-out: IC50 mean +/− SD; cited from earlier work
[4] = system: Lung cultured human cancer cells; conditions: mean among sensitive cell lines, cited from earlier work; for IC50: read-out: IC50 mean +/− SD
[5] = system: Melanoma cultured human cancer cells; conditions: mean among sensitive cell lines, cited from earlier work; for IC50: read-out: IC50 mean +/− SD
[6] = system: Myeloma cultured human cancer cells; conditions: first panel, mean among sensitive cell lines, read-out: EC50 mean +/− SD; cited from earlier work
[7] = system: Ovary cultured human cancer cells; conditions: second panel, mean among sensitive cell lines, read-out: IC50 mean +/− SD; cited from earlier work
[8] = system: Pancreas cultured human cancer cells; conditions: mean among sensitive cell lines, cited from earlier work
[9] = system: Sarcoma cultured human cancer cells; conditions: second panel, mean among sensitive cell lines, read-out: IC50 mean +/− SD; cited from earlier work
[10] = system: cancer cells (hematologic, lymphoma and solid cancer cell lines); conditions: tissue culture; hematological and solid cancer cell lines; cited from earlier work
[11] = PK and maximally tolerated dose, daily oral administration, rat
[12] = PK and maximally tolerated dose, daily oral administration, dog
[13] = Table 1B third line, Patient 115-002-001, Day 15 as printed
[14] = first panel, read-out: EC50 mean +/− SD
[15] = second panel, read-out: IC50 mean +/− SD

hERG, sequence (Q12809 whole entry): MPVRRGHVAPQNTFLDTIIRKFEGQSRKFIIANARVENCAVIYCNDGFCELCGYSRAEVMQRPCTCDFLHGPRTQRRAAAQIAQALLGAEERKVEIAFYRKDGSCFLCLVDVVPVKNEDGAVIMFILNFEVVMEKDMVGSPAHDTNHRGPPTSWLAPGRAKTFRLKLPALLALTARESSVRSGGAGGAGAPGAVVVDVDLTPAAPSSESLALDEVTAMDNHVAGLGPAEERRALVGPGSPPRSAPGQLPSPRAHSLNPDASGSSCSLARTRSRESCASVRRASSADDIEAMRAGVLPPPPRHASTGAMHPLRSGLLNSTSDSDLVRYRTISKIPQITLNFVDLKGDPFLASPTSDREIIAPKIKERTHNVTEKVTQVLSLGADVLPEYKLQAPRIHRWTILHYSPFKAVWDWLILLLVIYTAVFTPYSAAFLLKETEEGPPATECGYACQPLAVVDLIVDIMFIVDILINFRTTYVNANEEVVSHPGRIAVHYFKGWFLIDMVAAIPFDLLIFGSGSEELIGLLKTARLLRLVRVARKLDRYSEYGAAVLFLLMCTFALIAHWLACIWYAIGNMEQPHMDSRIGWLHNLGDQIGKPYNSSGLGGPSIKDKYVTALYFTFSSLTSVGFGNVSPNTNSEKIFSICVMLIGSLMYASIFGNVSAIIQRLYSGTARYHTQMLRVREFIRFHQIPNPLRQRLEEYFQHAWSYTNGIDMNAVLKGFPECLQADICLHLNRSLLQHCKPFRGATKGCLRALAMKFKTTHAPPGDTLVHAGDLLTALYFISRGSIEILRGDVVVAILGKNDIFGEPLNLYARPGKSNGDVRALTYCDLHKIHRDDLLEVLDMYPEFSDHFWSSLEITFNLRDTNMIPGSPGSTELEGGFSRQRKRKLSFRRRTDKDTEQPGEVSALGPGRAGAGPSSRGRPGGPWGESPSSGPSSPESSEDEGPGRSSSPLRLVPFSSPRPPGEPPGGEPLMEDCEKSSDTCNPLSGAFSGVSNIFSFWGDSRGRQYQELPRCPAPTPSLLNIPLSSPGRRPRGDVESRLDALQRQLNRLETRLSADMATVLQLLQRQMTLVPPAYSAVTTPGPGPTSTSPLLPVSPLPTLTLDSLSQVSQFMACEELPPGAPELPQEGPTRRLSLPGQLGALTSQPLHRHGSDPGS
human NMT2, sequence (O60551 whole entry): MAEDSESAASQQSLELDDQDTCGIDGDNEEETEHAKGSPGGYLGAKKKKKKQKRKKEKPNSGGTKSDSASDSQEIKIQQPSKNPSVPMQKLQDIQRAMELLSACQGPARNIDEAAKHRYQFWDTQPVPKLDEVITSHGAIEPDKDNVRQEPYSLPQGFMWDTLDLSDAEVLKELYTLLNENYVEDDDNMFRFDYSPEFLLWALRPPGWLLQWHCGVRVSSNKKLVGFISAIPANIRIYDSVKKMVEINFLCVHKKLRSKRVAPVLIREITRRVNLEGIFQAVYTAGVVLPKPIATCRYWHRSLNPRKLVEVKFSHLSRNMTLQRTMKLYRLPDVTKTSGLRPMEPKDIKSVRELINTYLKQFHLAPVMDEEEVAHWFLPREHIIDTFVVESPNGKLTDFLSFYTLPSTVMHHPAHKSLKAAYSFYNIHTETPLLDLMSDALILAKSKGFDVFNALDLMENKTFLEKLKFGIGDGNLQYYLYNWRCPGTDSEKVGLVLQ

Cc1c(NS(=O)(=O)c2c(Cl)cc(-c3ccnc(N4CCNCC4)c3)cc2Cl)c(CC(C)C)nn1C [PCLX-001, 2,6-dichloro-N-(3-isobutyl-1,5-dimethyl-1H-pyrazol-4-yl)-4-(2-(piperazin-1-yl)pyridin-4-yl)benzene sulfonamide]
AUC(0-inf) ([1]; Table 1B fourth line, Patient 115-002-001, Day 15): 2640 ng·h/mL | AUC(0-inf) [1, 13]: 2360 ng·h/mL | AUC(0-t) [1, 13]: 1700 ng·h/mL | Cmax [1, 13]: 278 ng/mL | half-life [1, 13]: 16.4 h | effective dose relative to the dose that produced mouse toxicity (implanted human tumors): greater than 50% | inhibition of human NMT2 (human NMT2): potent | hERG interaction (hERG): no significant hERG interaction | EC50 [2, 14]: 155 ± 49.7 nM | IC50 [2, 15]: 172 ± 79.8 nM | IC50 [3]: 153 ± 63.5 nM | EC50 [4, 14]: 151 ± 88.2 nM | IC50 ([4]; second panel): 184 ± 82.8 nM | IC50 ([4]; third panel): 154 ± 111 nM | EC50 [5, 14]: 134 ± 53.9 nM | IC50 ([5]; second panel): 208 ± 99.5 nM | IC50 ([5]; third panel): 157 ± 192 nM | EC50 [6]: 144 ± 44.7 nM | IC50 [7]: 76.7 ± 7.6 nM | EC50 [8, 14]: 109 ± 90 nM | IC50 [8, 15]: 77.7 ± 13.7 nM | IC50 [9]: 198 ± 134 nM | inhibition of cancer cell growth in vitro [10]: inhibition of cell growth; also recorded: markedly inhibited | Maximally Tolerated Dose daily oral administration [11]: 125 mg/kg | Maximally Tolerated Dose daily oral administration [12]: 4 mg/kg
